Experimental data published in ChEMBL document CHEMBL1201861, “Genomics of Drug Sensitity in Cancer screening data, Wellcome Trust Sanger Institute”.

Key:
Assay in all cases: cells
COLO-800 = format: functional, cell-based, Homo sapiens; settings: Homo sapiens, COLO-800;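 note: growth inhibition of COLO-800 cells, read out with a cell viability assay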
Description: SANGER: Inhibition of human COLO-800 cell growth in a cell viability assay.

DK-MG = format: functional, cell-based, Homo sapiens; settings: Homo sapiens, DK-MG;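 note: growth inhibition of DK-MG cells, read out with a cell viability assay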
Description: SANGER: Inhibition of human DK-MG cell growth in a cell viability assay.

EFO-27 = format: functional, cell-based, Homo sapiens; settings: Homo sapiens, EFO-27;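 note: growth inhibition of EFO-27 cells, read out with a cell viability assay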
Description: SANGER: Inhibition of human EFO-27 cell growth in a cell viability assay.

GOTO = format: functional, cell-based, Homo sapiens; settings: Homo sapiens, GOTO;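 note: growth inhibition of GOTO cells, read out by a cell viability assay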
Description: SANGER: Inhibition of human GOTO cell growth in a cell viability assay.

HAL-01 = format: functional, cell-based; settings: Homo sapiens;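 note: growth inhibition of human HAL-01 cells, read out with a cell viability assay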
Description: SANGER: Inhibition of human HAL-01 cell growth in a cell viability assay.

HCC1569 = format: functional, cell-based, Homo sapiens; settings: Homo sapiens, HCC1569;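 note: growth inhibition of human HCC1569 cells, read out with a cell viability assay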
Description: SANGER: Inhibition of human HCC1569 cell growth in a cell viability assay.

HCT-116 = format: functional, cell-based, Homo sapiens; settings: Homo sapiens, HCT-116
Description: SANGER: Inhibition of human HCT-116 cell growth in a cell viability assay.

HGC-27 = format: functional, cell-based, Homo sapiens; settings: Homo sapiens, HGC-27;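 note: growth inhibition of human HGC-27 cells, read out in a cell viability assay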
Description: SANGER: Inhibition of human HGC-27 cell growth in a cell viability assay.

IGR-1 = format: functional, cell-based, Homo sapiens; settings: Homo sapiens, IGR-1;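 note: growth inhibition of human IGR-1 cells, read out with a cell viability assay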
Description: SANGER: Inhibition of human IGR-1 cell growth in a cell viability assay.

IGROV-1 = format: functional, cell-based, Homo sapiens; settings: Homo sapiens, IGROV-1;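 note: reduction of IGROV-1 cell growth, read out with a viability assay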
Description: SANGER: Inhibition of human IGROV-1 cell growth in a cell viability assay.

IST-SL1 = format: functional, cell-based, Homo sapiens; settings: Homo sapiens, IST-SL1;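 note: growth inhibition of human IST-SL1 cells, read out with a cell viability assay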
Description: SANGER: Inhibition of human IST-SL1 cell growth in a cell viability assay.

K562 = format: functional, cell-based; settings: Homo sapiens
Description: SANGER: Inhibition of human K-562 cell growth in a cell viability assay.

KARPAS-45 = format: functional, cell-based; settings: Homo sapiens;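 note: inhibition of cell line growth, read out through a viability assay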
Description: SANGER: Inhibition of human KARPAS-45 cell growth in a cell viability assay.

KLE = format: functional, cell-based, Homo sapiens; settings: Homo sapiens, KLE;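 note: growth inhibition of human KLE cells, read out with a cell viability assay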
Description: SANGER: Inhibition of human KLE cell growth in a cell viability assay.

KP-4 = format: functional, cell-based, Homo sapiens; settings: Homo sapiens, KP-4; read-out: IC50;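 note: human KP-4 cells, with growth inhibition read out through a cell viability assay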
Description: SANGER: Inhibition of human KP-4 cell growth in a cell viability assay.

LB771-HNC = format: functional, cell-based, Homo sapiens; settings: Homo sapiens, LB771-HNC;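 note: growth inhibition of LB771-HNC human cells, read out with a cell viability assay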
Description: SANGER: Inhibition of human LB771-HNC cell growth in a cell viability assay.

LOX IMVI = format: functional, cell-based; settings: Homo sapiens
Description: SANGER: Inhibition of human LOXIMVI cell growth in a cell viability assay.

LU-134-A = format: functional, cell-based; settings: Homo sapiens
Description: SANGER: Inhibition of human LU-134-A cell growth in a cell viability assay.

LoVo = format: functional, cell-based; settings: Homo sapiens;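 note: growth inhibition of human LoVo cells, read out with a cell viability assay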
Description: SANGER: Inhibition of human LoVo cell growth in a cell viability assay.

MCF7 = format: functional, cell-based, Homo sapiens; settings: Homo sapiens, MCF7;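 note: growth inhibition of human MCF7 cells, read out with a cell viability assay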
Description: SANGER: Inhibition of human MCF7 cell growth in a cell viability assay.

MHH-PREB-1 = format: functional, cell-based; settings: Homo sapiens;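 note: cell viability assay measuring inhibition of proliferation of human MHH-PREB-1 cells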
Description: SANGER: Inhibition of human MHH-PREB-1 cell growth in a cell viability assay.

MN-60 = format: functional, cell-based; settings: Homo sapiens;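 note: growth inhibition of the MN-60 cell line, determined with a cell viability assay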
Description: SANGER: Inhibition of human MN-60 cell growth in a cell viability assay.

MS-1 = format: functional, cell-based; settings: Homo sapiens;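 note: growth inhibition of MS-1 cells, read out by cell viability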
Description: SANGER: Inhibition of human MS-1 cell growth in a cell viability assay.

NCI-H1648 = format: functional, cell-based, Homo sapiens; settings: Homo sapiens, NCI-H1648;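 note: cell viability assay measuring inhibition of NCI-H1648 cell growth, from the Sanger screening data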
Description: SANGER: Inhibition of human NCI-H1648 cell growth in a cell viability assay.

NCI-H1770 = format: functional, cell-based; settings: Homo sapiens;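 note: growth inhibition of NCI-H1770 cells determined with a viability readout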
Description: SANGER: Inhibition of human NCI-H1770 cell growth in a cell viability assay.

NCI-H2228 = format: functional, cell-based, Homo sapiens; settings: Homo sapiens, NCI-H2228;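 note: growth inhibition of human NCI-H2228 cells, read out by a cell viability assay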
Description: SANGER: Inhibition of human NCI-H2228 cell growth in a cell viability assay.

NCI-H520 = format: functional, cell-based, Homo sapiens; settings: Homo sapiens, NCI-H520;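 note: growth inhibition of NCI-H520 cells, measured by a cell viability assay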
Description: SANGER: Inhibition of human NCI-H520 cell growth in a cell viability assay.

NCI-H596 = format: functional, cell-based, Homo sapiens; settings: Homo sapiens, NCI-H596;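 note: growth inhibition of NCI-H596 cells, read out with a cell viability assay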
Description: SANGER: Inhibition of human NCI-H596 cell growth in a cell viability assay.

NCI-H810 = format: functional, cell-based, Homo sapiens; settings: Homo sapiens, NCI-H810;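 note: IC50 reflects inhibition of cancer cell line growth, read out with a cell viability assay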
Description: SANGER: Inhibition of human NCI-H810 cell growth in a cell viability assay.

SNU-5 = format: functional, cell-based; settings: Homo sapiens;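 note: cell viability readout used to measure growth inhibition in human NCI-SNU-5 cells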
Description: SANGER: Inhibition of human NCI-SNU-5 cell growth in a cell viability assay.

NTERA-2-cl-D1 = format: functional, cell-based, Homo sapiens; settings: Homo sapiens, NTERA-2-cl-D1;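 note: inhibition of cell growth, measured with a cell viability assay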
Description: SANGER: Inhibition of human NTERA-S-cl-D1 cell growth in a cell viability assay.

NY = format: functional, cell-based, Homo sapiens; settings: Homo sapiens, NY
Description: SANGER: Inhibition of human NY cell growth in a cell viability assay.

OE33 = format: functional, cell-based, Homo sapiens; settings: Homo sapiens, OE33;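 note: growth inhibition of human OE33 cells, measured by a cell viability assay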
Description: SANGER: Inhibition of human OE33 cell growth in a cell viability assay.

OVCAR-3 = format: functional, cell-based, Homo sapiens; settings: Homo sapiens, OVCAR-3;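 note: growth inhibition of human OVCAR-3 cells, determined by a cell viability assay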
Description: SANGER: Inhibition of human OVCAR-3 cell growth in a cell viability assay.

RO82-W-1 = format: functional, cell-based, Homo sapiens; settings: Homo sapiens, RO82-W-1;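 note: growth inhibition of human RO82-W-1 cells, measured with a cell viability assay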
Description: SANGER: Inhibition of human RO82-W-1 cell growth in a cell viability assay.

RPMI-8866 = format: functional, cell-based; settings: Homo sapiens
Description: SANGER: Inhibition of human RPMI-8866 cell growth in a cell viability assay.

SCC-9 = format: functional, cell-based, Homo sapiens; settings: Homo sapiens, SCC-9;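 note: Read-out is a cell viability assay, with values giving inhibition of cell growth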
Description: SANGER: Inhibition of human SCC-9 cell growth in a cell viability assay.

SK-NEP-1 = format: functional, cell-based; settings: Homo sapiens;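 note: growth inhibition of human SK-NEP-1 cells, read out by a cell viability assay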
Description: SANGER: Inhibition of human SK-NEP-1 cell growth in a cell viability assay.

SN12C = format: functional, cell-based, Homo sapiens; settings: Homo sapiens, SN12C;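 note: growth inhibition of human SN12C cells, measured by a cell viability assay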
Description: SANGER: Inhibition of human SN12C cell growth in a cell viability assay.

SNB-75 = format: functional, cell-based, Homo sapiens; settings: Homo sapiens, SNB-75;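 note: cell viability assay measuring growth inhibition of human SNB-75 cells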
Description: SANGER: Inhibition of human SNB75 cell growth in a cell viability assay.

A704 = format: functional, cell-based, Homo sapiens; settings: Homo sapiens, A704;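 note: growth inhibition of human A704 cells, read out with a cell viability assay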
Description: SANGER: Inhibition of human A704 cell growth in a cell viability assay.

AGS = format: functional, cell-based, Homo sapiens; settings: Homo sapiens, AGS;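 note: growth inhibition of AGS cells, determined with a cell viability assay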
Description: SANGER: Inhibition of human AGS cell growth in a cell viability assay.

ALL-PO = format: functional, cell-based; settings: Homo sapiens;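 note: growth inhibition of ALL-PO cells, read out by a cell viability assay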
Description: SANGER: Inhibition of human ALL-PO cell growth in a cell viability assay.

BEN = format: functional, cell-based, Homo sapiens; settings: Homo sapiens, BEN;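 note: growth inhibition of the BEN cell line, read out with a cell viability assay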
Description: SANGER: Inhibition of human BEN cell growth in a cell viability assay.

CAL-120 = format: functional, cell-based, Homo sapiens; settings: Homo sapiens, CAL-120;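 note: cell growth inhibition, read out as cell viability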
Description: SANGER: Inhibition of human CAL-120 cell growth in a cell viability assay.

CAL-39 = format: functional, cell-based, Homo sapiens; settings: Homo sapiens, CAL-39;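 note: cell viability assay measuring growth inhibition of CAL-39 cells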
Description: SANGER: Inhibition of human CAL-39 cell growth in a cell viability assay.

TK-10 = format: functional, cell-based, Homo sapiens; settings: Homo sapiens, TK-10;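 note: growth inhibition of TK-10 cells, read out in a cell viability assay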
Description: SANGER: Inhibition of human TK10 cell growth in a cell viability assay.

U-266 = format: functional, cell-based; settings: Homo sapiens
Description: SANGER: Inhibition of human U-266 cell growth in a cell viability assay.

UO-31 = format: functional, cell-based; settings: Homo sapiens;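 note: cell viability assay measuring inhibition of cell growth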
Description: SANGER: Inhibition of human U031 cell growth in a cell viability assay.

VMRC-RCZ = format: functional, cell-based; settings: Homo sapiens;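 note: growth inhibition measured with a cell viability assay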
Description: SANGER: Inhibition of human VMRC-RCZ cell growth in a cell viability assay.

CAS-1 = format: functional, cell-based, Homo sapiens; settings: Homo sapiens, CAS-1;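 note: growth inhibition of CAS-1 cells, measured with a cell viability assay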
Description: SANGER: Inhibition of human CAS-1 cell growth in a cell viability assay.

COLO-678 = format: functional, cell-based, Homo sapiens; settings: Homo sapiens, COLO-678
Description: SANGER: Inhibition of human COLO-678 cell growth in a cell viability assay.

Q: What does the source list for `COc1cc(F)c(F)c(Nc2ccc(I)cc2F)c1NS(=O)(=O)C1(CC(O)CO)CC1` (centres undefined)?
A: IC50 (COLO-800): > 5000 nM; IC50 (DK-MG): 2830 nM; IC50 (EFO-27): 962 nM; IC50 (GOTO): > 5000 nM; IC50 (HAL-01): > 5000 nM; IC50 (HCC1569): > 5000 nM; IC50 (HCT-116): 524 nM; IC50 (HGC-27): > 5000 nM; IC50 (IGR-1): > 5 µM; IC50 (IGROV-1): 1780 nM; IC50 (IST-SL1): > 5 µM; IC50 (K562): > 5 µM; IC50 (KARPAS-45): 1140 nM; IC50 (KLE): > 5 µM; IC50 (KP-4): > 5 µM; IC50 (LB771-HNC): > 5 µM; IC50 (LOX IMVI): 477 nM; IC50 (LU-134-A): > 5000 nM; IC50 (LoVo): 396 nM; IC50 (MCF7): > 5000 nM; IC50 (MHH-PREB-1): > 5000 nM; IC50 (MN-60): > 5000 nM; IC50 (MS-1): > 5 µM; IC50 (NCI-H1648): > 5000 nM; IC50 (NCI-H1770): > 5000 nM; IC50 (NCI-H2228): > 5000 nM; IC50 (NCI-H520): > 5000 nM; IC50 (NCI-H596): > 5000 nM; IC50 (NCI-H810): > 5 µM; IC50 (SNU-5): 4.51 µM; IC50 (NTERA-2-cl-D1): > 5000 nM; IC50 (NY): > 5 µM; IC50 (OE33): > 5000 nM; IC50 (OVCAR-3): > 5 µM; IC50 (RO82-W-1): > 5000 nM; IC50 (RPMI-8866): > 5000 nM; IC50 (SCC-9): > 5 µM; IC50 (SK-NEP-1): > 5000 nM; IC50 (SN12C): > 5000 nM; IC50 (SNB-75): > 5000 nM; IC50 (A704): 4700 nM; IC50 (AGS): 240 nM; IC50 (ALL-PO): > 5000 nM; IC50 (BEN): > 5000 nM; IC50 (CAL-120): > 5000 nM; IC50 (CAL-39): 415 nM; IC50 (TK-10): 2210 nM; IC50 (U-266): > 5 µM; IC50 (UO-31): > 5 µM; IC50 (VMRC-RCZ): > 5000 nM; IC50 (CAS-1): > 5 µM; IC50 (COLO-678): 2110 nM

Q: Which IC50 (COLO-800) does the source give for `COc1ccc(-c2ccc3c(N4CCOC[C@@H]4C)nc(N4CCOC[C@@H]4C)nc3n2)cc1CO` [AZD-8055] here?
A: 698 nM

Q: What about the IC50 (DK-MG) of the same compound?
A: > 2000 nM

Q: What about the IC50 (EFO-27) of the same compound?
A: 680 nM

Q: And the IC50 (GOTO)?
A: 1740 nM

Q: What about the IC50 (HAL-01) of the same compound?
A: 203 nM

Q: What about the IC50 (HCC1569) of the same compound?
A: 852 nM

Q: What about the IC50 (HCT-116) of the same compound?
A: 1430 nM

Q: And the IC50 (HGC-27)?
A: 264 nM

Q: And the IC50 (IGR-1)?
A: > 2 µM

Q: And the IC50 (IGROV-1)?
A: 675 nM

Q: And the IC50 (IST-SL1)?
A: > 2 µM

Q: And the IC50 (K562)?
A: > 2 µM

Q: And the IC50 (KARPAS-45)?
A: 33.7 nM

Q: What about the IC50 (KLE) of the same compound?
A: > 2 µM

Q: What about the IC50 (KP-4) of the same compound?
A: > 2 µM

Q: What about the IC50 (LB771-HNC) of the same compound?
A: > 2 µM

Q: And the IC50 (LOX IMVI)?
A: 551 nM

Q: And the IC50 (LU-134-A)?
A: 1030 nM

Q: And the IC50 (LoVo)?
A: 202 nM

Q: What about the IC50 (MCF7) of the same compound?
A: 405 nM

Q: What about the IC50 (MHH-PREB-1) of the same compound?
A: 747 nM

Q: And the IC50 (MN-60)?
A: 678 nM

Q: And the IC50 (MS-1)?
A: > 2 µM

Q: What about the IC50 (NCI-H1648) of the same compound?
A: 702 nM

Q: What about the IC50 (NCI-H1770) of the same compound?
A: 802 nM

Q: And the IC50 (NCI-H2228)?
A: 1270 nM

Q: And the IC50 (NCI-H520)?
A: 348 nM

Q: And the IC50 (NCI-H596)?
A: 1260 nM

Q: And the IC50 (NCI-H810)?
A: > 2 µM

Q: And the IC50 (SNU-5)?
A: > 2 µM

Q: What about the IC50 (NTERA-2-cl-D1) of the same compound?
A: 701 nM

Q: And the IC50 (NY)?
A: > 2 µM

Q: What about the IC50 (OE33) of the same compound?
A: 799 nM

Q: What about the IC50 (OVCAR-3) of the same compound?
A: > 2 µM

Q: What about the IC50 (RO82-W-1) of the same compound?
A: 1520 nM

Q: What about the IC50 (RPMI-8866) of the same compound?
A: 858 nM

Q: What about the IC50 (SCC-9) of the same compound?
A: > 2 µM

Q: What about the IC50 (SK-NEP-1) of the same compound?
A: 625 nM

Q: And the IC50 (SN12C)?
A: 807 nM

Q: And the IC50 (SNB-75)?
A: 1750 nM

Q: And the IC50 (A704)?
A: 818 nM

Q: What about the IC50 (AGS) of the same compound?
A: 1090 nM

Q: And the IC50 (ALL-PO)?
A: 1440 nM

Q: And the IC50 (BEN)?
A: 213 nM

Q: What about the IC50 (CAL-120) of the same compound?
A: 860 nM

Q: And the IC50 (CAL-39)?
A: 523 nM

Q: What about the IC50 (TK-10) of the same compound?
A: 1360 nM

Q: And the IC50 (U-266)?
A: > 2 µM

Q: What about the IC50 (UO-31) of the same compound?
A: > 2 µM

Q: And the IC50 (VMRC-RCZ)?
A: 785 nM

Q: What about the IC50 (CAS-1) of the same compound?
A: > 2 µM

Q: And the IC50 (COLO-678)?
A: > 2000 nM
